The source of these data is patent US20250179032A1, “HETEROCYCLIC INHIBITORS OF GLUT9 FOR TREATMENT OF DISEASE” (HORIZON THERAPEUTICS IRELAND DAC, priority 2022, published 2025).

In the test the target is T1, H. sapiens SLC2A9 variant 2 (GLUT9B) (Homo sapiens, UniProt Q9NRM0).
T1 sequence (Q9NRM0 1-511 isoform Q9NRM0-2): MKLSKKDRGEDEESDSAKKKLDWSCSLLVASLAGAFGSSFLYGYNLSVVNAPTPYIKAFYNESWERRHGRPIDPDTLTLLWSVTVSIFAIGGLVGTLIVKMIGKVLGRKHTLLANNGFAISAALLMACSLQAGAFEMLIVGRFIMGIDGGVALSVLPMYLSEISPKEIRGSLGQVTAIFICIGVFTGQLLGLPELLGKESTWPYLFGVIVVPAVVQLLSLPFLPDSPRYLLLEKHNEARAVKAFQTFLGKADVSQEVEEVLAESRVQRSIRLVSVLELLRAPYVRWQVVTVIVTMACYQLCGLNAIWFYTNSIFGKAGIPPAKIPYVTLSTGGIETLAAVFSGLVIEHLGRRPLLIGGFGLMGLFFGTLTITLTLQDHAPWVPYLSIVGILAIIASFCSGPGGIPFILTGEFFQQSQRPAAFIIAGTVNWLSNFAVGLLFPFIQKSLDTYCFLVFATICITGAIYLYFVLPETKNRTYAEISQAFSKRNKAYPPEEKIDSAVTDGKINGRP
Kind of test: GLUT9 functional assay: uric acid uptake in HEK293T cells, allantoin formation by MS/MS as proxy of GLUT9B inhibition. Format: cell-based. Conditions: 15 minute assay; HEK293T cells stably expressing GLUT9B and transiently A. oryzae uricase; uric acid 0.3 mM, 37° C.; read-out: 15 min IC50. An outline of the steps: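 HEK293T cells stably expressing human GLUT9B and transiently expressing A. oryzae uricase, exposed across a 12-point curve to 0.3 mM uric acid (Km) in sodium gluconate buffer pH 7.4 for 15 or 60 min at 37° C. Allantoin in lysates quantified by RapidFire MS/MS (positive ion) against a matrix-matched standard curve as proxy for uptake.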

Molecules are shown by their SMILES.

Turning to `CCCCc1cnc(-c2ccc(OC)cc2)c(N2CCN(CC(=O)O)CC2)n1` [Compound 1, 2-(4-(6-Butyl-3-(4-Methoxyphenyl)Pyrazin-2-yl)Piperazin-1-yl)Acetic Acid], the IC50 was above 2000 nM. Take `CN(C)S(=O)(=O)N1CCN(c2nc(CCC(F)(F)F)cnc2-c2ccc3occc3c2)CC1` [Compound 106, 4-(3-(benzofuran-5-yl)-6-(3,3,3-trifluoropropyl)pyrazin-2-yl)-N,N-dimethylpiperazine-1-sulfonamide]: the IC50 is above 2000 nM.

One may read the IC50 as the point on the concentration scale where inhibition reaches its midpoint.
